Experimental data reported in patent US20260209152A1, “Substituted Hydroxystilbene Compounds and Derivatives, Synthesis and Uses Thereof” (Kynan Duke IP, LLC, priority 2019, published 2026).
Read-outs that look alike come from different tables or passages of the source. Blank lines part the entries; values can stand above or below the compound they belong to.

Experiments:
Assay in all cases: CellTiter Glo cell viability assay
[1] = tested on: Neuroblastoma CHP-212/CRL-2273; type: cell-based; settings: Homo sapiens, 11 dilutions 3-0.00001 μM
Experimental: (§1) 1.7*10^3 cells/well were seeded in quadruplicates in 96-well plate after plating. Drugs were added at 5 μM and 2-fold dilutions over 18 concentrations (0.000038146-5 […] range) to generate a dose-response curve. Cell growth was assessed on day 1, 3 and 5 after drug treatments using the CellTiter Glo Luminescence Cell Viability Assay (Promega) according to manufacturer's protocol. Thermo Scientific Varioskan LUX Multimode Microplate instrument was used for plate reading. Data are expressed as mean luminescence (arbitrary units) ±S.D.
(§2) Cell Viability Assays were employed to determine the concentration of Compound 1 (KYN-001) and analogues where the response is reduced by half. For each treatment of cancer cells, 1, 2, 5, 10 and 20 μM solutions of compounds were applied. GraphPad Prism 7 software was used to fit dose response curves. Relative Luminescence Units were plotted against the log values of the doses used and the nonlinear regression model was used for data analysis.
(§3) IC50 (μM) values correspond to log(inhibitor) vs. response (four parameters) and dose-response graphs were generated using GraphPad Prism8.

[2] = tested on: Neuroblastoma SK-N-FI/CRL-2142; type: cell-based; settings: Homo sapiens, 11 dilutions 3-0.00001 μM
Experimental: as §1, §2, §3

[3] = tested on: Osteosarcoma MG-63/CRL-1427; type: cell-based; settings: Homo sapiens, 11 dilutions 3-0.00001 μM
Experimental: as §1, §2, §3

[4] = tested on: Colon cancer HT-29/HTB-38; type: cell-based; settings: Homo sapiens, 11 dilutions 3-0.00001 μM
Experimental: as §1, §2, §3

[5] = tested on: Neuroblastoma SK-N-DZ/CRL-2149; type: cell-based; settings: Homo sapiens, 11 dilutions 3-0.00001 μM
Experimental: as §1, §2, §3

[6] = tested on: Liver cancer SNU-449/CRL-2234; type: cell-based; settings: Homo sapiens, 11 dilutions 3-0.00001 μM
Experimental: as §1, §2, §3

[7] = tested on: Muscle Ewing's Sarcoma A-673/CRL-1598; type: cell-based; settings: Homo sapiens, A673, 11 dilutions 3-0.00001 μM
Experimental: as §1, §2, §3

[8] = tested on: Colon cancer SW620/CCL-227; type: cell-based; settings: Homo sapiens, SW-620, 11 dilutions 3-0.00001 μM
Experimental: as §1, §2, §3

[9] = tested on: Neuroblastoma BE(2)-C/CRL-2268; type: cell-based; settings: Homo sapiens, 11 dilutions 3-0.00001 μM
Experimental: as §1, §2, §3

Pancreatic CAPAN-1 = type: cell-based; settings: Homo sapiens; Capan-1/HTB-79; 11 dilutions 3-0.00001 μM
Rhabomyosarcoma A-204 = type: cell-based; settings: Homo sapiens
Experimental: as §1, §2
(§4) The protocol for cell proliferation was optimized for Compound 8 (KYN-119) to enable a more accurate assessment of its low IC50 value. In this protocol, 18 dosages (2 fold dilutions ranging from 0.000038146 to 5 μM) were applied to cells seeded in 96-well plates, and Luminescence was measured after 1, 3 and 5 days upon treatments.

Bladder RT4 = type: cell-based; settings: Homo sapiens
Experimental: as §1, §2, §4

Kidney 769-P = type: cell-based; settings: Homo sapiens
Experimental: as §1, §2, §4

Pancreatic HPAFII = type: cell-based, human; settings: for IC50: Homo sapiens
Experimental: as §1, §2, §4

Liver SNU-423 = type: cell-based, human; settings: for IC50: Homo sapiens
Experimental: as §1, §2, §4

Kidney Caki-1 = type: cell-based, human; settings: for IC50: Homo sapiens
Experimental: as §1, §2, §4

Tongue CAL 27 = type: cell-based, human; settings: for IC50: Homo sapiens
Experimental: as §1, §2, §4

Rhabomyosarcoma TE 159.T = type: cell-based, human; settings: for IC50: Homo sapiens, 72 h, 3 Days of treatment, 18 2-fold dilutions 5-0.00003 μM, read-out: Average IC50
Experimental: as §1, §2, §4

[10] = tested on: Hypo-pharynx UPCI: SCC152; type: cell-based, human; settings: for IC50: Homo sapiens
Experimental: as §1, §2, §4

Ewing's Sarcoma HTB-166 = type: cell-based, human; settings: for IC50: Homo sapiens
Experimental: as §1, §2, §4

Lung NCI-H1573 = type: cell-based, human; settings: for IC50: Homo sapiens
Experimental: as §1, §2, §4

Bladder T24 = type: cell-based, human; settings: for IC50: Homo sapiens
Experimental: as §1, §2, §4

Liver SNU-398 = type: cell-based, human; settings: for IC50: Homo sapiens
Experimental: as §1, §2, §4

Tongue UPCI: SCC090 = type: cell-based, human; settings: for IC50: Homo sapiens
Experimental: as §1, §2, §4

Pancreatic PANC-1 = type: cell-based, human; settings: for IC50: Homo sapiens
Experimental: as §1, §2, §4

[11] = A204, A-204/HTB-82, 11 dilutions 3-0.00001 μM, read-out: IC50
[12] = RT4/HTB-2, 11 dilutions 3-0.00001 μM, read-out: IC50
[13] = 769-P/CRL-1933, 11 dilutions 3-0.00001 μM, read-out: IC50
[14] = HPAF-II, 72 h, 3 Days of treatment, 18 2-fold dilutions 5-0.00003 μM, read-out: Average IC50
[15] = HPAF-II/CRL-1997, 11 dilutions 3-0.00001 μM, read-out: IC50
[16] = SNU-423, 72 h, 3 Days of treatment, 18 2-fold dilutions 5-0.00003 μM, read-out: Average IC50
[17] = SNU-423/CRL-2238, 11 dilutions 3-0.00001 μM, read-out: IC50
[18] = CAKI-1, 72 h, 3 Days of treatment, 18 2-fold dilutions 5-0.00003 μM, read-out: Average IC50
[19] = Caki-1/HTB-46, 11 dilutions 3-0.00001 μM, read-out: IC50
[20] = CAL-27, 72 h, 3 Days of treatment, 18 2-fold dilutions 5-0.00003 μM, read-out: Average IC50
[21] = CAL 27/CRL-2095, 11 dilutions 3-0.00001 μM, read-out: IC50
[22] = 72 h, 3 Days of treatment, 18 2-fold dilutions 5-0.00003 μM, read-out: Average IC50
[23] = UPCI: SCC152/CRL-3240, 11 dilutions 3-0.00001 μM, read-out: IC50
[24] = RD-ES/HTB-166, 11 dilutions 3-0.00001 μM, read-out: IC50
[25] = NCI-H1573, 72 h, 3 Days of treatment, 18 2-fold dilutions 5-0.00003 μM, read-out: Average IC50
[26] = NCI-H1573/CRL-5877, 11 dilutions 3-0.00001 μM, read-out: IC50
[27] = T24/HTB-4, 11 dilutions 3-0.00001 μM, read-out: IC50
[28] = SNU-398, 72 h, 3 Days of treatment, 18 2-fold dilutions 5-0.00003 μM, read-out: Average IC50
[29] = SNU-398/CRL-2233, 11 dilutions 3-0.00001 μM, read-out: IC50
[30] = UPCI: SCC090/CRL-3239, 11 dilutions 3-0.00001 μM, read-out: IC50
[31] = PANC-1, 72 h, 3 Days of treatment, 18 2-fold dilutions 5-0.00003 μM, read-out: Average IC50
[32] = PANC-1/CRL-1469, 11 dilutions 3-0.00001 μM, read-out: IC50
[33] = IC50 of 1 [KYN-001] vs 8 [KYN-119], 3 Days

IC50 [1]: 28.1 nM
IC50 [2]: 116 nM
IC50 [3]: 44.1 nM
IC50 [4]: 1560 nM
IC50 [5]: 132 nM
IC50 [6]: 81.8 nM
IC50 [7]: 471 nM
IC50 [8]: 121 nM
IC50 [9]: 67.1 nM
IC50 (Rhabomyosarcoma A-204; [11]): 199 nM
IC50 (Liver SNU-423; [16]): 33.8 nM
IC50 (Liver SNU-423; [17]): 203 nM
IC50 (Rhabomyosarcoma TE 159.T): 147 nM
IC50 (Ewing's Sarcoma HTB-166; [22]): 257 nM
IC50 (Ewing's Sarcoma HTB-166; [24]): 310 nM
IC50 (Lung NCI-H1573; [25]): 217 nM
IC50 (Lung NCI-H1573; [26]): 273 nM
IC50 (Bladder T24; [22]): 129 nM
IC50 (Bladder T24; [27]): 182 nM
IC50 (Liver SNU-398; [28]): 42.9 nM
IC50 (Liver SNU-398; [29]): 208 nM
IC50 (Pancreatic PANC-1; [31]): 107 nM
IC50 (Pancreatic PANC-1; [32]): 110 nM
Structure (SMILES): COc1cc(/C=C/c2cc(O)cc(OC)c2CC=C(C)C)ccc1O [Compound 1, (E)-3-(4-hydroxy-3-methoxystyryl)-5-methoxy-4-(3-methylbut-2-en-1-yl)phenol]
IC50 (Pancreatic CAPAN-1): 2670 nM
IC50 (Bladder RT4; [12]): 1380 nM
IC50 (Kidney 769-P; [13]): 363 nM
IC50 (Pancreatic HPAFII; [14]): 1070 nM
IC50 (Pancreatic HPAFII; [15]): 417 nM
IC50 (Kidney Caki-1; [18]): 103 nM
IC50 (Kidney Caki-1; [19]): 120 nM
IC50 (Tongue CAL 27; [20]): 56.8 nM
IC50 (Tongue CAL 27; [21]): 89.4 nM
IC50 [10, 22]: 46.3 nM
IC50 [10, 23]: 140 nM
IC50 (Tongue UPCI: SCC090; [22]): 90.1 nM
IC50 (Tongue UPCI: SCC090; [30]): 0.9 nM

IC50 [1]: 9.8 nM
IC50 [2]: 26.6 nM
IC50 [3]: 18.2 nM
IC50 [4]: 939 nM
IC50 [5]: 50.1 nM
IC50 [6]: 32.5 nM
IC50 [7]: 157 nM
IC50 [8]: 35.5 nM
IC50 [9]: 25.9 nM
IC50 (Rhabomyosarcoma A-204; A204, 72 h, 3 Days of treatment, 18 2-fold dilutions 5-0.00003 μM, read-out: Average IC50): 30.7 nM
IC50 (Rhabomyosarcoma A-204; [11]): 67.8 nM
IC50 (Liver SNU-423; [16]): 6.23 nM
IC50 (Liver SNU-423; [17]): 79.7 nM
Fold IC50 (Liver SNU-423; [33]): 5.4
IC50 (Rhabomyosarcoma TE 159.T): 19.6 nM
Fold IC50 (Rhabomyosarcoma TE 159.T; [33]): 7.5
IC50 (Ewing's Sarcoma HTB-166; [22]): 49.2 nM
IC50 (Ewing's Sarcoma HTB-166; [24]): 163 nM
Fold IC50 (Ewing's Sarcoma HTB-166; [33]): 5.2
IC50 (Lung NCI-H1573; [25]): 20.5 nM
IC50 (Lung NCI-H1573; [26]): 33.5 nM
Fold IC50 (Lung NCI-H1573; [33]): 11
IC50 (Bladder T24; [22]): 22.5 nM
IC50 (Bladder T24; [27]): 61.1 nM
Fold IC50 (Bladder T24; [33]): 5.8
IC50 (Liver SNU-398; [28]): 8.15 nM
IC50 (Liver SNU-398; [29]): 74.6 nM
Fold IC50 (Liver SNU-398; [33]): 5.3
IC50 (Pancreatic PANC-1; [31]): 11.5 nM
IC50 (Pancreatic PANC-1; [32]): 31.4 nM
Fold IC50 (Pancreatic PANC-1; [33]): 9.3
Structure (SMILES): CCOc1cc(O)cc(/C=C/c2ccc(O)c(OC)c2)c1CC=C(C)C [Compound 8, (E)-3-Ethoxy-5-(4-hydroxy-3-methoxystyryl)-4-(3-methylbut-2-en-1-yl)phenol]
IC50 (Pancreatic CAPAN-1): 2320 nM
IC50 (Bladder RT4; [22]): 1670 nM
IC50 (Bladder RT4; [12]): 968 nM
IC50 (Kidney 769-P; 769-P, 72 h, 3 Days of treatment, 18 2-fold dilutions 5-0.00003 μM, read-out: Average IC50): 33.7 nM
IC50 (Kidney 769-P; [13]): 109 nM
IC50 (Pancreatic HPAFII; [14]): 403 nM
IC50 (Pancreatic HPAFII; [15]): 242 nM
Fold IC50 (Pancreatic HPAFII; [33]): 2.7
IC50 (Kidney Caki-1; [18]): 8.9 nM
IC50 (Kidney Caki-1; [19]): 27.9 nM
Fold IC50 (Kidney Caki-1; [33]): 12
IC50 (Tongue CAL 27; [20]): 38.3 nM
IC50 (Tongue CAL 27; [21]): 30.9 nM
Fold IC50 (Tongue CAL 27; [33]): 1.5
IC50 [10, 22]: 23 nM
IC50 [10, 23]: 54.9 nM
Fold IC50 [10, 33]: 2.0
IC50 (Tongue UPCI: SCC090; [22]): 26 nM
IC50 (Tongue UPCI: SCC090; [30]): 0.5 nM
Fold IC50 (Tongue UPCI: SCC090; [33]): 3.5
